# Literature values in patent publication US8545882B2, “Control release formulation containing a hydrophobic material as the sustained release agent” (Nostrum Pharmaceuticals, Inc., priority 2001, dated 2013).
# Like-named read-outs stand apart in the source and are kept apart here.
# Key:
# [1] = 40% by weight glycerol palmitostearate, wet granulation, after 20 minutes
# [2] = water
# [3] = granules 200-315 microns, any of three polymers at 10 or 20% by weight
compound,measurement,setting,value
O=C([O-])c1ccccc1O.[Na+] [sodium salicylate],drug released in water,[1],50%
Cn1c(=O)c2[nH]cnc2n(C)c1=O [theophylline],theophylline released,"[2]; 2% (w/w) wax coating, within one hour",85%
same,theophylline released,"[2]; 6% wax coating, in 5 minutes",35%
same,theophylline released,"[2]; 6% wax coating, within the first hour",55%
same,theophylline released,"[2]; 10% (w/w) wax coating, in 5 minutes",28%
same,theophylline released,"[2]; 10% (w/w) wax coating, within the first hour",38%
CC(C)Cc1ccc(C(C)C(=O)O)cc1 (stereo not shown) [ibuprofen],time in which the drug was released completely,[3],≤ 30 min
